Reference: paper PMC3160846 (PLoS ONE, 2011)

Tests used:
Type in all cases: cell-based, Human
OECM-1 cells = assay: Clonogenic assay, OECM-1
Protocol: (§1) Human lung adenocarcinoma A549 cells and NTUB1 bladder cancer cells were maintained in RPMI supplied with 10% fetal bovine serum. […] KB-derived MRP1-expressing cell line, KB-7D, was maintained in growth medium supplemented with 7 µM VP-16.
(§2) Two hundred cells in logarithmic growth phase were seeded in a 6-well plate. The cells were exposed to various concentrations of the test drugs for a three-generation period. At the end of the incubation period, cells were fixed and stained with 50% ethanol containing 0.5% methylene blue for 30 min. The plates were washed five times with water and allowed to air-dry. Colonies were countered manually. […] Each value represents the average of at least three independent experiments run in triplicates.

KB cells = assay: Clonogenic assay, KB
Protocol: as §1, §2

KB-VIN10 cells = assay: Clonogenic assay, KB-VIN10
Protocol: as §1, §2

A549 cells = assay: Clonogenic assay, A549
Protocol: as §1, §2

NTU0.017 cells = assay: Clonogenic assay, NTU0.017
Protocol: as §1, §2

MV4-11 cells = assay: Clonogenic assay, MV4-11
Protocol: as §1, §2

NTUB1 cells = assay: Clonogenic assay, NTUB1
Protocol: as §1, §2

KB-S15 cells = assay: Clonogenic assay, KB-S15
Protocol: as §1, §2

IM9 cells = assay: Clonogenic assay, IM9
Protocol: as §1, §2

HONE-1 cells = assay: Clonogenic assay, HONE-1
Protocol: as §1, §2

HT29 cells = assay: Clonogenic assay, HT29
Protocol: as §1, §2

How did the IC50 (OECM-1 cells; Homo sapiens, OECM1, OECM-1, oral, p53 mutant, MDR1 negative, read-out: IC50, anti-proliferative activity) turn out when CO[C@@H](C(=O)N1Cc2n[nH]c(NC(=O)c3ccc(N4CCN(C)CC4)cc3)c2C1)c1ccccc1 [PHA-739358] was run?
Its IC50 is 642 ± 68 nM.

And the “Fold difference as compare to the IC50 of BPR1K653” value (“Fold difference … of BPR1K653” below) (OECM-1 cells; OECM-1)?
The value was 5 fold.

And the “Fold difference … of BPR1K653” value (KB cells)?
Its value is 33 fold.

What about the IC50 (KB cells; Homo sapiens, cervical, p53 wild-type, MDR1 negative (parental), read-out: IC50, anti-proliferative activity) of the same compound?
The IC50 was 400 ± 100 nM.

And the IC50 (KB-VIN10 cells; Homo sapiens, KB-VIN10, vincristine resistant, MDR1 ↑, read-out: IC50, anti-proliferative activity)?
Its IC50 is over 25000 nM.

And the “Fold difference as compare to the IC50 in the respective parental cells” value (KB-VIN10 cells; KB-VIN10 vs KB)?
The value was over 63 fold.

And the “Fold difference … of BPR1K653” value (A549 cells; A549)?
Its value is 6 fold.

And the IC50 (A549 cells; Homo sapiens, A549, lung, p53 wild-type, MDR1 negative, read-out: IC50, anti-proliferative activity)?
The IC50 was 56 ± 8 nM.

And the IC50 (NTU0.017 cells; Homo sapiens, NTU0.017, paclitaxol resistant, MDR1 ↑, read-out: IC50, anti-proliferative activity)?
Its IC50 is over 50000 nM.

And the “Fold difference as compare to the IC50 in the respective parental cells” value (NTU0.017 cells; NTU0.017 vs NTUB1)?
Its value is over 123 fold.

And the IC50 (MV4-11 cells; Homo sapiens, MV4-11, leukemia, p53 mutant, MDR1 negative, read-out: IC50, anti-proliferative activity)?
The IC50 was 86 ± 11 nM.

What about the “Fold difference … of BPR1K653” value (MV4-11 cells; MV4-11) of the same compound?
The value was 17 fold.

What about the IC50 (NTUB1 cells; Homo sapiens, NTUB1, bladder, MDR1 negative (parental), read-out: IC50, anti-proliferative activity) of the same compound?
The IC50 was 405 ± 134 nM.

And the “Fold difference … of BPR1K653” value (NTUB1 cells; NTUB1)?
Its value is 51 fold.

What about the IC50 (KB-S15 cells; Homo sapiens, KB-S15, paclitaxol resistant, MDR1 ↑, read-out: IC50, anti-proliferative activity) of the same compound?
The IC50 was 4700 nM.

And the “Fold difference as compare to the IC50 in the respective parental cells” value (KB-S15 cells; KB-S15 vs KB)?
The value was 12 fold.

What about the IC50 (IM9 cells; Homo sapiens, IM9, lymphoma, p53 wild-type, MDR1 negative, read-out: IC50, anti-proliferative activity) of the same compound?
The IC50 was 450 ± 12 nM.

What about the “Fold difference … of BPR1K653” value (IM9 cells; IM9) of the same compound?
Its value is 113 fold.

And the “Fold difference … of BPR1K653” value (HONE-1 cells; HONE-1)?
Its value is 5 fold.

And the IC50 (HONE-1 cells; Homo sapiens, HONE1, HONE-1, oral, p53 mutant, MDR1 negative, read-out: IC50, anti-proliferative activity)?
The IC50 was 59 ± 16 nM.

What about the “Fold difference … of BPR1K653” value (HT29 cells; HT29) of the same compound?
The value was 4 fold.

What about the IC50 (HT29 cells; Homo sapiens, HT-29, HT29, colon, p53 mutant, MDR1 negative, read-out: IC50, anti-proliferative activity) of the same compound?
Its IC50 is 48 ± 8 nM.
